Reference: paper PMC12040169 (PLOS Biology, 2025)

Assay: in vitro
Conditions: human, hela cells, % viability

Row | SMILES | viability at 28.5 h, 10 µM [%]
1 | O=C(CSc1nnc2sc3ccccc3n12)N1N=CCC1c1ccccc1 (centres unmarked) [CBK266527] | 87.1
2 | Cc1cccc(Oc2nc3c(C)cccn3c(=O)c2/C=C(\C#N)c2nc3ccccc3[nH]2)c1 [CBK266528] | 104
3 | COc1ccc(C(=O)C2=C(O)C(=O)N(CCCN(C)C)C2c2ccncc2)cc1Cl (centres unmarked) [CBK266529] | 109
4 | COCc1c(Br)c(C)nc(OCC(=O)O)c1C#N [CBK266532] | 96.9
5 | Cc1cccc(NC(=O)COc2ccccc2CNc2ccc(Br)cc2)c1 [CBK266534] | 101
6 | Cc1cc(Cl)c(S(=O)(=O)Nc2cccc(Br)c2)cc1OCC(N)=O [CBK266535] | 100
7 | Cc1ccc(C(=O)C2=C(O)C(=O)N(CCN(C)C)C2c2ccccn2)o1 (centres unmarked) [CBK266536] | 119
8 | COc1ccc(C(C)C)cc1S(=O)(=O)NCCN1CCOCC1 [CBK266538] | 112
9 | Cc1c(C(=O)C2=C(O)C(=O)N(Cc3cccnc3)C2c2ccc(F)cc2)cnn1-c1ccccc1 (centres unmarked) [CBK266541] | 105
10 | Cc1ccc(S(=O)(=O)NC(C)C(=O)Nc2cc(C(F)(F)F)ccc2Cl)cc1 (centres unmarked) [CBK266546] | 109
11 | Cc1nnc(SCc2cc(=O)nc(Nc3nc(C)c4ccccc4n3)[nH]2)s1 [CBK266549] | 103
12 | O=C(Nc1ccc(S(=O)(=O)N2CCOCC2)cc1)c1ccc(CN2CCc3ccccc3C2)cc1 [CBK266550] | 96.2
13 | COc1cccc(CNC(C)(C)CO)c1OCc1ccc(Cl)cc1 [CBK266552C] | 102
14 | Cc1cc(Cl)c(S(=O)(=O)N2CCN(c3ccccn3)CC2)cc1OCC(N)=O [CBK266553] | 117
15 | Nc1nc(SCC(=O)c2ccc3c(c2)OCCO3)n[nH]1 [CBK266554] | 107
16 | COc1ccc(F)cc1S(=O)(=O)N1CCCN(S(=O)(=O)c2cc(F)ccc2OC)CC1 [CBK266555] | 93.5
17 | CC(C)(C)c1cc(CN2CCCCC2)c(C(=O)O)o1 [CBK266556C] | 97.8
18 | O=C(NCC1(c2ccccc2)CCCC1)c1ccc(NC(=O)C2COc3ccccc3O2)cc1 (centres unmarked) [CBK266558] | 97.9
19 | COc1cc(S(=O)(=O)NC2CC(C)(C)NC(C)(C)C2)ccc1F [CBK266561] | 92
20 | Cc1ccc(S(=O)(=O)N2CCN(CC(O)COc3ccc4ccccc4c3Cl)CC2)c(C)c1 (centres unmarked) [CBK266563] | 83
21 | COc1ccc(N2CCN(/C(=N\S(=O)(=O)c3ccc(C)cc3)Nc3nc(C)cc(C)n3)CC2)cc1 [CBK266564] | 99.9

Row | SMILES | viability at 28.5 h, 10 µM [%]
22 | O=[N+]([O-])c1cc(C(F)(F)F)ccc1NCCCNc1nc(N2CCOCC2)nc2ccccc12 [CBK266567] | 112
23 | O=C(CCSc1ccccc1)Nc1ccc(S(=O)(=O)N2CCOCC2)cc1 [CBK266568] | 114
24 | Clc1cccc(Cl)c1CN(Cc1ccccc1)c1ncnc2[nH]cnc12 [CBK266571] | 95.2
25 | Nc1nc(SCC(=O)NCc2ccco2)n[nH]1 [CBK266572] | 94
26 | COc1ccc(N(CC(=O)NC2CC3CCC2C3)S(=O)(=O)c2ccc(C)cc2)cc1 (centres unmarked) [CBK266574] | 108
27 | COc1cc(CNn2c(C)nnc2S)cc(Br)c1OCC(=O)NC(C)(C)C [CBK266575] | 112
28 | O=C(CSc1nnc2scc(-c3ccccc3)n12)Nc1nsc(-c2ccc(Cl)cc2)n1 [CBK266576] | 95.4
29 | CC12CCC(C(=O)O)(c3nc4cc([N+](=O)[O-])ccc4nc31)C2(C)C (centres unmarked) [CBK266577K] | 95.6
30 | NS(=O)(=O)c1ccc(CCNC2CC(=O)N(Cc3cccs3)C2=O)cc1 (centres unmarked) [CBK266579] | 91.1
31 | Nc1nc(SCC(=O)NCc2ccc3c(c2)OCO3)n[nH]1 [CBK266580] | 101
32 | COc1ccc2[nH]c(C(=O)O)c(CCC(=O)O)c2c1 [CBK266582] | 98.1
33 | CCN(CC)CCN1C(=O)C(O)=C(C(=O)c2ccc(C)o2)C1c1ccccn1 (centres unmarked) [CBK266584] | 109
34 | Cc1cc(Cl)c(S(=O)(=O)NCc2ccccc2)cc1OCC(N)=O [CBK266588] | 104
35 | Cc1cc(Cl)c(S(=O)(=O)Nc2ccon2)cc1OCC(N)=O [CBK266589] | 99.6
36 | CCNc1nc(NCc2ccccc2)nc(Oc2ccc(=O)[nH]n2)n1 [CBK266591] | 104
37 | COc1ccccc1C1C(C(=O)c2sc(C)nc2C)=C(O)C(=O)N1CCCN1CCOCC1 (centres unmarked) [CBK266592] | 113
38 | Cc1nc(-c2ccccc2)sc1C(=O)C1=C(O)C(=O)N(CCN(C)C)C1c1ccc(Cl)cc1 (centres unmarked) [CBK266595] | 110
39 | COc1cc(NC(=O)CC2NC3CCCCC3NC2=O)cc(OC)c1 (centres unmarked) [CBK266597] | 99.1
40 | Cc1nc(-c2ccccc2)sc1C(=O)C1=C(O)C(=O)N(CCCN2CCOCC2)C1c1cccs1 (centres unmarked) [CBK266601] | 91.4
41 | COc1ccc(-c2nnc3c4ccccc4c(C)nn23)cc1S(=O)(=O)NC(C)c1ccccc1 (centres unmarked) [CBK266605] | 104
42 | Cc1cc(C)cc(NC(=O)c2ccc(CSc3nnc(N)s3)cc2)c1 [CBK266609] | 85.5

Row | SMILES | viability at 28.5 h, 10 µM [%]
43 | CCn1c(COc2ccc(Cl)c3cccnc23)nnc1SC [CBK266611] | 85.9
44 | CCN1CCN(C(=O)CN(Cc2ccc(F)cc2)S(=O)(=O)c2ccccc2)CC1 [CBK266612] | 96.8
45 | Cc1ccc(S(=O)(=O)NCC(C)O)cc1-c1nnc2c3ccccc3c(C)nn12 (centres unmarked) [CBK266614] | 106
46 | NS(=O)(=O)c1ccc(NC2=NC(=O)C(CC(=O)Nc3ccc(Br)cc3)S2)cc1 (centres unmarked) [CBK266616] | 117
47 | Nn1c(=O)c2ccccc2n2c(SCC(=O)N(c3ccccc3)c3ccccc3)nnc12 [CBK266621] | 99.3
48 | Cn1c(SCC(=O)NC(c2ccccc2)c2ccccc2)nnc1-c1ccncc1 [CBK266622] | 97.8
49 | N#CC1=C(N)Oc2[nH]nc(-c3ccc4ccccc4c3)c2C1c1cn(CC(N)=O)nc1-c1ccccc1 (centres unmarked) [CBK266624] | 107
50 | N#C/C(=C/c1ccc(OCc2cccc(C(=O)O)c2)cc1)c1ccc([N+](=O)[O-])cc1 [CBK266626] | 89.6
51 | CCN1CCN(Cc2c(O)ccc3c(=O)c(Oc4ccccc4Cl)c(C(F)(F)F)oc23)CC1 [CBK266627] | 107
52 | CCN1CCN(c2ccc(NC(=O)c3cccnc3)cc2Cl)CC1 [CBK266629C] | 97.9
53 | O=c1n(-c2ccccc2)c(=O)n(Cc2ccccn2)n1Cc1ccccn1 [CBK266630] | 98.7
54 | N#Cc1ccccc1CSc1nnc(Cc2cccc3ccccc23)n1-c1ccccc1 [CBK266633] | 89.7
55 | COc1ccccc1Nc1nc(N)nc(CN2CCc3ccccc3C2)n1 [CBK266635] | 95.1
56 | Cc1ccc(S(=O)(=O)N2CCC(C(=O)O)CC2)cc1C(=O)O [CBK266636] | 99.6
57 | O=C(CSc1nnc(-c2ccccc2)n1-c1ccc(Cl)cc1)NCc1ccco1 [CBK266637] | 99.2
58 | Cc1cc(=O)oc2ccc(OCC(=O)N(Cc3ccc(F)cc3)Cc3ccco3)cc12 [CBK266639] | 103
59 | COc1ccc(-c2nnc3c4ccccc4c(C)nn23)cc1S(=O)(=O)N1CCCCC1 [CBK266640] | 110
60 | COc1cc(/C=C2/C(=O)N(c3nnn[nH]3)N=C2C)ccc1OC(=O)c1cccs1 [CBK266641] | 112
61 | COc1ccccc1C1=NN(C(=O)CCCC(=O)O)C(c2ccco2)C1 (centres unmarked) [CBK266642] | 91.8
62 | Cc1ccc2nc(-c3ccc(N4C(Nc5nc(C)cc(C)n5)=NC(=O)CC4C(=O)O)cc3)sc2c1 (centres unmarked) [CBK266646] | 104
63 | CCOc1ccccc1NC(=O)C(C)Oc1ccc(OC)cc1 (centres unmarked) [CBK266648] | 39.6

Row | SMILES | viability at 28.5 h, 10 µM [%]
64 | O=C(O)CCC(=O)N1N=C(c2ccccc2)CC1c1ccc2nccnc2c1 (centres unmarked) [CBK266650] | 86.1
65 | Cc1ccc(CNC(=O)CSc2nnc(-c3ccncc3)n2-c2ccccc2)cc1 [CBK266654] | 102
66 | O=C(CSc1nnc(CN2CCOCC2)n1-c1ccccc1)N1CCN(c2ccccc2)CC1 [CBK266660] | 102
67 | COc1ccc(OC(C)C(=O)Nc2ccccc2-c2ccccc2)cc1 (centres unmarked) [CBK266661] | 94.2
68 | Cc1cc(C)c(S(=O)(=O)N(CC(=O)O)C2CCCCC2)c(C)c1 [CBK266663] | 92.6
69 | CCCNc1nc(Nc2ccc(C)cc2)nc(N2CCOCC2)n1 [CBK266664] | 111
70 | O=C(NCCN1CCOCC1)c1cccc(S(=O)(=O)N2CCCCCC2)c1 [CBK266668] | 97.3
71 | COc1ccc(OC(C)C(=O)O/N=C(\N)c2ccccn2)cc1 (centres unmarked) [CBK266669] | 100
72 | O=C1CC(SCCc2nc3ccccc3[nH]2)C(=O)N1c1cccc(F)c1 (centres unmarked) [CBK266671] | 94.6
73 | Cc1cc(OCc2nc(-c3ccc(NC(=O)c4ccc5c(c4)OCO5)cc3)no2)ccc1Cl [CBK266673] | 95.7
74 | Nc1nonc1-n1nnc(C(=O)O)c1-c1cccs1 [CBK266674] | 99.4
75 | COc1ccccc1Nc1nc(N)nc(CSCCO)n1 [CBK266679] | 91.4
76 | Cc1ccc(S(N)(=O)=O)cc1-c1nnc2c3ccccc3c(C)nn12 [CBK266680] | 104
77 | COc1ccc(Nc2nc(N)nc(CSc3nnc(N)s3)n2)cc1 [CBK266682] | 90.6
78 | Cc1cccc(C)c1NC(=O)Cn1c(SCC(N)=O)nc2ccccc21 [CBK266684] | 106
79 | Cc1ccc(-c2ccc(/C=C(\C#N)c3nc(-c4ccco4)cs3)o2)c([N+](=O)[O-])c1 [CBK266685] | 96
80 | O=C(O)CSc1nnc(-c2ccncc2)n1-c1ccc(Cl)cc1 [CBK266686] | 92.1
81 | COc1ccc(C(=O)Nn2c(SCC(=O)c3ccc(F)cc3)nc3ccccc3c2=O)cc1 [CBK266688] | 99.7
82 | Nc1nc(COn2c(-c3ccccc3)nc3ccccc3c2=O)nc(-c2ccccc2O)n1 [CBK266689] | 98.6
83 | O=C(Nc1ccc(-c2noc(COc3ccc(Br)cc3)n2)cc1)c1ccc2c(c1)OCO2 [CBK266692] | 97.2
